In patent US20240277606A1, “METHODS FOR THE PULSED DELIVERY OF BIOACTIVE AGENTS” (University of Mississippi, priority 2021, published 2024):

How the values were obtained:
[1] = In vitro release from single-layered CAPP films; type: physicochemical; settings: for release rate compared with Rhodamine dye: from 0.1 mm thick CAPP films
Procedure: Next, drug release from single-layered CAPP films of 0.1, 0.2, 0.3, and 0.4 mm thickness was quantified. Drug release was measured by encapsulating Rhodamine fluorescent dye within the films and closely matched the erosion times reported above. Complete release from 0.1 mm thick films occurred after ˜18 hrs (FIG. 4A). Complete release from 0.2 mm thick films occurred after ˜36 hrs (FIG. 4A). Complete release from 0.3 mm thick films occurred after ˜60 hrs (FIG. 4A). Complete release from 0.4 mm thick films occurred after ˜78 hrs (FIG. 4A). Importantly, release of 5HT2A agonists from 0.1 mm thick CAPP films was also measured, since 0.1 mm thick films are used to encapsulate drug in the multilayered films.

5HT2A receptor = target: T1, 5HT2A receptor (Homo sapiens, UniProt P28223); experiment: In vitro bioactivity: calcium flux (Fluo-8) in 5HT2A serotonin receptor cells; type: cell-based; settings: 5 μM, 1 hr treatment, versus PBS control
T1 construct: host or cells: Chem-1 cells (parental control HTSCHEM-1RTA)
T1 sequence (P28223 whole entry): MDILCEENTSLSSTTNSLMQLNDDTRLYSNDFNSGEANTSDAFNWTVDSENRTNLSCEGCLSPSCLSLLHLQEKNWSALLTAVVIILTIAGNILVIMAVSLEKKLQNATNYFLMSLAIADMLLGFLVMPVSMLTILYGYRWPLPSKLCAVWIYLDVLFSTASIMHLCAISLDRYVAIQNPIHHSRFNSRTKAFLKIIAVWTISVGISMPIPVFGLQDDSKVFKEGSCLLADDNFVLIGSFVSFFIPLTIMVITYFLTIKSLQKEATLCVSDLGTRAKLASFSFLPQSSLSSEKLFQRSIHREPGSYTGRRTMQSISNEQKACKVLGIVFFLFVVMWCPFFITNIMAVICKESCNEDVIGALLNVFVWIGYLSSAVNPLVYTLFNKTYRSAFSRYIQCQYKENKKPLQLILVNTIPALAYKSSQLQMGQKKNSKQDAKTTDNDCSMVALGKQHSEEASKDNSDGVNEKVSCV
Procedure: Briefly, 5HT2A serotonin receptor cells (Millipore Sigma, HTS082RTA) and chem-1 parental control cells (Millipore Sigma, HTSCHEM-1RTA) were seeded in 96 well plates (5000 cells-100 μl/well of 50,000 cells/ml solution) and allowed to adhere overnight. […] After 1 hr, Fluo-8 green dye solution (Abcam, ab112129) was added to the cells, incubated 30 min at 37° C., and then incubated for 30 minutes at room temperature, followed by fluorescence measurements on a microplate reader.

[2] = Pilot pharmacokinetics of DOI from subcutaneously implanted 0.1 mm CAPP films; type: in vivo; settings: DOI-loaded 0.1 mm CAPP film, subcutaneous, CD-1 mice
From the text: Single-layered films loaded with DOI and blank single-layered films have been constructed. These films were sterilized and implanted subcutaneously in the dorsal flap of CD-1 mice in an initial pilot experiment. This pilot experiment enabled optimization of blood collection time points, ensure the ability to detect DOI with current bioanalytical techniques, and will inform the design of the rest of the in vivo studies. Briefly, films were implanted subcutaneously followed by blood and organ collection at 8, 16, and 24 hrs to monitor blood pharmacokinetics of DOI released from the 0.1 mm thick CAPP films in vivo. […] The concentration of DOI in the blood of mice returned to baseline by 16 hrs and remained at baseline through 24 hrs. […] This pilot experiment was repeated to: 1) sample at earlier time points for better overall fidelity and 2) to also determine the concentration of DOI in major organs, particularly the brain. […] As expected based on the plasma pharmacokinetics, it was observed that the peak concentration of DOI in the brain, liver, and kidneys was ˜2-4 hrs (FIGS. 13C-13F). […] The release profile of the same dose of DOI from 0.4 mm thick films can also be measured, as can the release profile of DOI from multilayered CAPP films with three DOI-loaded 0.1 mm thick films separated by 0.4 mm thick blank films.

[3] = Pulsed delivery of DOI from subcutaneously implanted multilayer CAPP films coated with PSA; type: in vivo; settings: seven-layer CAPP film, subcutaneous
From the text: The multilayered CAPP films used for this study had seven layers, where layers 1, 4, and 7 were DOI-loaded 0.1 mm thick CAPP films at 70:30 CAP:P ratio and layers 2, 3, 5, and 6 were unloaded (Blank) 0.4 mm thick CAPP films at 90:10 CAP:P ratio. The layered devices were then coated on all sides but one (the top of layer 1) with the biocompatible polymer polysebacic acid (PSA). After implantation, the anticipated pulsed release schedule of DOI was observed, with three distinct DOI pulses where peak concentrations in the plasma occurred at ˜2, 12, and 24 hrs post-implantation.

[4] = Follow-up plasma and organ pharmacokinetics of DOI from subcutaneously implanted 0.1 mm CAPP films; type: in vivo, CD-1 mice; settings: post-implantation of 0.1 mm thick CAPP films, subcutaneous
From the text: Single-layered films loaded with DOI and blank single-layered films have been constructed. These films were sterilized and implanted subcutaneously in the dorsal flap of CD-1 mice in an initial pilot experiment. This pilot experiment enabled optimization of blood collection time points, ensure the ability to detect DOI with current bioanalytical techniques, and will inform the design of the rest of the in vivo studies. Briefly, films were implanted subcutaneously followed by blood and organ collection at 8, 16, and 24 hrs to monitor blood pharmacokinetics of DOI released from the 0.1 mm thick CAPP films in vivo. […] The concentration of DOI in the blood of mice returned to baseline by 16 hrs and remained at baseline through 24 hrs. […] This pilot experiment was repeated to: 1) sample at earlier time points for better overall fidelity and 2) to also determine the concentration of DOI in major organs, particularly the brain. […] As expected based on the plasma pharmacokinetics, it was observed that the peak concentration of DOI in the brain, liver, and kidneys was ˜2-4 hrs (FIGS. 13C-13F). DOI was cleared from the plasma as well as the brain, liver, and kidneys by ˜12 hrs post-implantation. The release profile of the same dose of DOI from 0.4 mm thick films can also be measured, as can the release profile of DOI from multilayered CAPP films with three DOI-loaded 0.1 mm thick films separated by 0.4 mm thick blank films.

[5] = In vitro release kinetics from multilayered CAPP films (Rhodamine as model drug); type: physicochemical
From the text: The layering strategy (i.e., alternating 0.1 mm and 0.4 mm films) was chosen based on the results in FIGS. 4A-4B showing that 0.1 mm films erode in ˜24 hrs while 0.4 mm films erode in ˜70-80 hrs. Additionally, each layer was engineered to degrade by either bulk or surface erosion based on the function of that particular layer. The drug-loaded, 0.1 mm thick layers should degrade via bulk erosion such that the drug is rapidly released from these layers in a bolus. However, the “blank” 0.4 mm layers should erode via surface erosion to ensure gradual degradation of the blank layer from “top-to-bottom” to maintain ordered pulses of release over time. Therefore, the absorption of water into polymeric films composed of a range of CAP:P ratios was examined, since bulk erosion occurs in materials where the rate of water absorption is greater than the degradation rate. By contrast, surface erosion occurs in materials where the rate of degradation is greater than the rate of water absorption into the material. […] Therefore, multilayered films with 0.1 mm drug-loaded layers composed of 70:30 (bulk-eroding) CAPP films and 0.4 mm blank layers composed of 90:10 (surface eroding) CAPP films were produced. Lastly, the erosion time for CAPP films of CAP:P ratios varying from 70:30-90:10 was examined to inform the construction of multilayer devices that are to be composed of both 70:30 and 90:10 CAPP films. […] As film thickness increases, erosion time of the films increases proportionally.
We constructed multilayer CAPP films of alternating 0.1 mm bulk eroding, drug-loaded layers and 0.4 mm surface eroding, blank layers and observed drug release kinetics from these films using Rhodamine as a model drug. […] However, in these preliminary results the third drug pulse is not obvious and the gaps between pulses have some variability. A new layering design was implemented to counter these shortcomings; including adding two “blank” layers between each drug-loaded film, as well as having “blank” layers on the bottom of the device to maintain device structure through the third drug pulse.

[6] = multilayer film, alternating 0.1 mm drug-loaded and 0.4 mm blank layers

SMILES: COc1cc(CC(C)N)c(OC)cc1I (stereo not drawn) [DOI, 2,5-dimethoxy-4-iodoamphetamine]
- release rate compared with Rhodamine dye [1]: very similar rate
- calcium flux downstream of 5HT2A receptor activation (5HT2A receptor): significant induction of calcium
- detection in blood ([2]; 8 hrs post-implantation): consistently detected
- time at which blood concentration returned to baseline ([2]; remained at baseline through 24 hrs): ≤ 16 h
- concentration profile in brain, liver, and kidneys [3]: matched the pulsed profile of the blood plasma
- time of peak plasma concentration, first pulse ([3]; post-implantation): ~2 h
- time of peak plasma concentration, second pulse ([3]; post-implantation): ~12 h
- time of peak plasma concentration, third pulse ([3]; post-implantation): ~24 h
- time by which cleared from plasma, brain, liver, and kidneys [4]: ~12 h
- time of peak concentration in brain, liver, and kidneys [4]: 2 to 4 h
- time of peak concentration in plasma [4]: 2 h

SMILES: CCN(CC)c1ccc2c(-c3ccccc3C(=O)O)c3ccc(=[N+](CC)CC)cc-3oc2c1 [Rhodamine, rhodamine B]
- time to complete release ([1]; from 0.1 mm thick single-layered CAPP film): ~18 h
- time to complete release ([1]; from 0.2 mm thick single-layered CAPP film): ~36 h
- time to complete release ([1]; from 0.3 mm thick single-layered CAPP film): ~60 h
- time to complete release ([1]; from 0.4 mm thick single-layered CAPP film): ~78 h
- time of peak of first drug pulse [5, 6]: 16 h
- time of peak of second drug pulse [5, 6]: 72 h
- time of peak of third drug pulse [5, 6]: ~120 h
- spacing between three intermittent drug pulses ([5]; second generation design, two blank layers between drug-loaded films and blank layers at bottom): ~70 h

SMILES: CCN(CC)C(=O)[C@@H]1C=C2c3cccc4c3c(cn4C(=O)C3CC3)C[C@H]2N(C)C1 [1cp-LSD, N1-(cyclopropylmethanoyl)-lysergic acid diethylamide]
- calcium flux downstream of 5HT2A receptor activation (5HT2A receptor): significant induction of calcium

SMILES: CC(=O)Oc1cccc2[nH]cc(CCN(C)C)c12 [4-acetoxy DMT, O-acetylpsilocin]
- release rate compared with Rhodamine dye [1]: very similar rate
